Data from a melting point compilation (Tetko et al.; mined from patent text by program, amines drawn as free bases though some values may be those of a salt).

SMILES | melting point
O=C(Nc1ccccc1Sc1ccccc1-c1nnn[nH]1)c1ccc(OCCCCc2ccccc2)cc1 | 156 to 159 °C
Cc1nc(NC(=O)OCc2ccccc2)c2n1-c1ccc(Cl)cc1C(c1ccccc1F)=NC2 | 250 to 253 °C
COc1ccc(-c2cncc(C#N)c2-c2ccc3[nH]ccc3c2)cc1OC | 215 to 217 °C
NC1CCc2cc3c(cc2C1)OCC3 (centres undefined) | 60 °C
Cn1cc(Sc2ccccc2)c(=O)c(-c2ccccc2)c1 | 164 to 165 °C
CCOC(=O)COc1cc(F)c(-c2nn(C)c(C(F)(F)F)c2Cl)cc1[N+](=O)[O-] | 95 to 96 °C
COc1ccc2c3c1OC1C(=O)C(C)CC4(OC)C(C2)N(C)CCC314 (centres undefined) | 215 to 221 °C
Cc1cc2c(-c3ccccc3N)nc(N3CCNCC3)nc2s1 | 232 to 236 °C
CCCOCCOc1ccc(Oc2ccc3c(c2)C=C(C(=O)O)CCS3(=O)=O)cc1OCC | 116 to 118 °C
O=C(Nc1c(Cl)cc(C(F)(c2cccs2)C(F)(F)F)cc1Cl)c1cccc(NC(=O)c2c(F)cc(F)cc2F)c1F (centres undefined) | 190 to 193 °C
CC(=O)C(C)(O)C1(C)OC(C)=CC1=O (centres undefined) | 95 to 96 °C
CCc1cccc(-n2cnc(-c3cnc4[nH]cc(C(=O)N[C@@H](C)C(C)(C)C)c4n3)c2)c1 | 284 to 287 °C
Clc1cnc(Cl)c2cc(Br)ccc12 | 134 to 135 °C
O=c1[nH]c2scc(Br)c2[nH]c1=O | 295 to 296 °C
C#CCOc1ccc2c(c1)c(-c1ccc(C(C)C)cc1)nc(=O)n2Cc1cccc(NC(=O)CCl)c1 | 170 to 172 °C
CCOCc1nc2c(N)nc3ccccc3c2n1CCc1cc(-c2ccc(F)cc2)no1 | 180 to 181 °C
CCCCCN1C(=O)C(O)(c2cc3c(cc2O)OCO3)c2ccncc21 (centres undefined) | 193 to 195 °C
CCN(CC)Cc1nc2cc(OC)c(OC)cc2c(-c2ccc(OC)c(OC)c2)c1Cl | 146 to 148 °C
CCC(C)(COc1nn2nc(C)nc2cc1C)CS(N)(=O)=O (centres undefined) | 194 to 195 °C
CC1(C)C2CC[C@@]1(N1CCCCC1)[C@H](O)C2 | 88.5 to 89.5 °C
CCOc1nc2cccc(C(Br)Br)c2c(=O)o1 | 98 to 99 °C
CC(C)(C)c1cc(-c2c[nH]c(S(C)(=O)=O)n2)cc(C(C)(C)C)c1O | 119 to 120 °C
O=C1C=C(c2c[nH]c3ccc(Br)cc23)C(=O)N1 | 268 °C
COC(=O)C(C)(C)N(OC(C)(C)C#N)C(C)(C)C | 78 to 85 °C
CCC(=O)CN1C(=O)C(NC(=O)Nc2cccc(C)c2)N=C(C)c2cccc(C)c21 (centres undefined) | 125 to 128 °C
O=C(O)c1cc(Br)cc([N+](=O)[O-])c1NCc1ccccc1Cl | 159 to 161 °C

SMILES | melting point
C1=C(c2c[nH]c3ccccc23)CCN(CC2CCc3ccccc3O2)C1 (centres undefined) | 171 to 173 °C
CCCC1CC(NCC)=C(c2cccc(C(F)(F)F)c2)C1=O (centres undefined) | 120 °C
CC(C)CC(NC(=O)C(Cc1c[nH]c2ccccc12)NC(=O)OC(C)(C)C)C(=O)NCCC(=O)CCl (centres undefined) | 79 to 81 °C
O=c1[nH]c2nc(C(F)(F)F)cc(C(F)(F)F)c2cc1-c1ccncc1 | 250 to 270 °C
COc1nc(N)nc2nc(/C=C3/CC3(CO)CO)[nH]c12 | 188 to 189 °C
CCC(=O)NCCC1=CCC2=C1C1=C(CC2)OCCC1 | 85 to 88 °C
CCCCCNc1cccc2c1C(=O)N(C1(C)CCC(=O)NC1=O)C2=O (centres undefined) | 96 to 98 °C
CC(C)OC(=O)c1cc(N=C=O)c(F)cc1Cl | 41 to 43 °C
CC(Cc1ccccc1)(C(=NC#N)NCc1ccco1)c1ccccn1 (centres undefined) | 152 to 154 °C
CN1CCN(c2ccc3cc(Cl)ccc3n2)CC1 | 141 to 142 °C
O=C(O)C(CN1CCCC1)C(C(=O)O)P(=O)(O)O (centres undefined) | 122 to 124 °C
O=C1OCCN1CCN1CCN(C2Cc3cc(F)ccc3Sc3ccccc32)CC1 (centres undefined) | 158 to 159 °C
CC(=S)NC[C@H]1CN(c2ccc(N3CCN(c4nnc(C)s4)CC3)c(F)c2)C(=O)O1 | 222 to 223 °C
Cc1cc(-c2cc(C(F)(F)F)n3nc(CC#N)c(C#N)c3n2)ccc1Cl | 238 °C
c1cnc(NCCc2c[nH]cn2)cn1 | 200 to 202 °C
CON1C(C)(C)CC(OCC2CO2)CC1(C)C (centres undefined) | 47 to 49 °C
O=P(O)(O)C(F)(F)P(=O)(O)O | 87 to 90 °C
CC(C)(C)OC(=O)NC(Cc1c[nH]cn1)C(=O)N1CCCC1C(N)=O (centres undefined) | 97 to 101 °C
CN1C(=O)c2c(c3c4ccccc4[nH]c3c3[nH]c4ccccc4c23)C1=O | > 350 °C
COc1ccc(N2CCN(c3ccc(Nc4nnc(C)s4)cc3)CC2)cc1 | 277 °C
O=C1CCCN1CCc1c2ccccc2n2c1[nH]c(=O)c1ccccc12 | 154 to 155 °C
Nc1cnc2c(c1)CCCC2 | 97 to 98 °C
COCCOc1cc2ncnc(NC3=CC(=O)C(N4CCOCC4)=CC3=O)c2cc1OC | 239 to 243 °C
OC(Cn1ccnc1)(c1ccc(Cl)cc1)c1ccc(Cl)cc1 | 208 to 210 °C
O=C(CS(=O)Cc1ccco1)C12CC3CC(CC(C3)C1)C2 (centres undefined) | 75 to 79 °C
Cc1nc(NC(=O)c2cnn3c(C(F)(F)F)cc(-c4ccc(Cl)cc4)nc23)sc1S(=O)(=O)NC(C)(C)CO | 274 °C

Other lines, results leading:

melting point | SMILES
210 to 212 °C | COc1ccc(OC)c2c(=O)cc(C(=O)O)sc12
179 °C | CCOC(=O)c1c(CC(=O)O)n(-c2ccc(OC(C)C)cc2)c2ccc(Oc3nc(C)ccc3C#N)cc12
61 to 63 °C | CCOC(=O)CCCCNc1ccc2c(c1)CCC2
137 to 140 °C | CC(C)[C@](O)(CCc1ccc(O)cc1)CC(=O)O
186 °C | CC(=O)Nc1ccc(OC(=O)CCl)cc1
123 to 124 °C | CCOC(=O)C(CC(=O)c1cc(F)ccc1OC)(NC(C)=O)C(=O)OCC
220 to 222 °C | CCn1nc2c(N)nc3ccccc3c2c1CCS(C)(=O)=O
198 to 200 °C | Nc1ccc(C(=O)NCC(=O)O)cc1F
76 to 78 °C | CNCc1ccc(S(C)(=O)=O)c(S(=O)(=O)NC(C)(C)C)c1
262 to 264 °C | Cn1cc(-c2ccc(C(=O)O)cn2)cn1
90 to 93 °C | CCCCCCOc1ccc(C(=O)Cl)cc1
239 to 240 °C | CC(=O)Nc1ccc(S(=O)(=O)Nc2nnc(C)s2)cc1
72 to 74 °C | CC(=O)OCC(C(=O)OC(C)(C)C)C(=O)c1ccccc1 (centres undefined)
199 to 202 °C | COc1cccc([C@H]2O[C@H](CC(=O)O)C(=O)N(CC(C)(C)CO)c3ccc(Cl)cc32)c1OC
112 to 113 °C | COC(=O)/C(N)=C/C(=O)/C=C/c1ccc(Cl)cc1
207 to 209 °C | CC1CC(=O)NN=C1c1ccc(N=Cc2ccccc2O)cc1 (centres undefined)
135 to 136 °C | CCN(c1ccc(SC)cc1[N+](=O)[O-])S(=O)(=O)c1ccc(C)cc1
219 to 222 °C | O=C(Nc1cccc(C(F)(F)F)c1F)c1cccnc1NCc1ccc(=O)[nH]c1
177 °C | O=C(/C=C/c1ccc(C(=O)O)s1)NOC1CCCCO1 (centres undefined)
175 °C | CCCS(=O)c1cccc(-c2nc(=O)c3ccccc3s2)n1 (centres undefined)
115 to 117 °C | Cc1ccc(N2CCN3C(=O)CCC3C2=O)cc1 (centres undefined)
143 to 146 °C | COc1cc2c(cc1C(O)c1ccccc1)C=C2C(=O)O (centres undefined)
126 to 127 °C | O=C1c2ccccc2C(=O)N1C[C@H]1COc2cc(Cl)ccc2O1
104 to 106 °C | CCCCNC(=O)NS(=O)(=O)c1ccccc1CCl
187 to 188 °C | Cc1c2c(nc3ccccc13)C(=Cc1ccc(Cl)c(Cl)c1)CC2
63 to 65 °C | COc1cccc(C(=O)c2cc3ccc(OC)cc3o2)c1

melting point | SMILES
53 °C | COC(=O)CC1=C(C)Cc2ccc(F)cc21
117 to 118 °C | O=C1C=CC(O)(c2cccc3ccccc23)C=C1
228 to 229 °C | COc1ccc2cn[nH]c(=O)c2c1
180 to 182 °C | O=C(CC1=C(n2nc(-c3c(-c4ccccc4)nn4ccccc34)ccc2=O)CCCC1)N1CCSCC1
213 °C | CS(=O)(=O)N1CCN([C@@H](CNC(=O)c2ccc(OCc3ccncc3)cc2)C(=O)NO)CC1
189 to 190 °C | COc1ccc(C2=NN(Cc3ccc(C(=O)O)cc3)C(=O)[C@H]3CCCC[C@@H]23)cc1OC1CCCC1 (relative stereo)
175 to 180 °C | N#CCc1cc(=O)c(OCc2ccccc2)cn1Cc1ccccc1
158 to 160 °C | CCNC(=O)c1sc(-n2ccc(OCc3ccccc3)cc2=O)cc1C
90 to 92 °C | CC(O)(CCF)c1ccc(-c2ccc(F)cc2)cc1 (centres undefined)
175 to 176 °C | CCN(CC)CC(=O)Nc1ccc(C2=NN(C(C)=O)C(C)Cc3cc4c(cc32)OCO4)cc1 (centres undefined)
211 to 214 °C | Cc1ccc(C=NNc2ncnc3ccccc23)cc1
> 265 °C | CN(Cc1ccc2c(c1)Nc1nccnc1S2)C(N)=C[N+](=O)[O-]
161 to 164 °C | C=C(c1ccc2nc(N)n(S(=O)(=O)C(C)C)c2c1)c1cc(F)ccc1F
182 to 183 °C | CC1(c2ccc(-c3ccccc3)cc2)OC(=O)C(OCc2ccccc2)=C1O (centres undefined)
126 to 128 °C | CCOC(=O)CCc1ccc2cc(O)ccc2n1
120 °C | CC1(CNc2ccccc2)SC2C(NC(=O)Cc3ccccc3)C(=O)N2C1C(=O)O (centres undefined)
77 to 78 °C | COC(=O)CCCCCC(O)c1ccc(-n2ccnc2)cc1 (centres undefined)
124 to 126 °C | CCCn1cc(Cc2ccc(C(=O)O)cc2OC)c2cc(C=CCC(=O)N(C)C)ccc21
170 to 171 °C | CC(NC(=O)OCc1ccccc1)C(=O)N1CC(=O)NC1(C)C (centres undefined)
214 to 217 °C | O=c1ccc(Oc2ccc([N+](=O)[O-])cc2)c[nH]1
104 to 105 °C | CC(C)(C)C(O)(COc1ccc(F)cc1)C(Cc1ccc(Cl)cc1)n1cncn1 (centres undefined)
217 to 218 °C | CCOC(=O)Nc1cc2c3ccccc3n(CC)c2cn1
175 to 177 °C | CCOC(=O)c1cnc(Nc2ccccc2OCC(C)C)[nH]c1=O
156 to 158 °C | Cc1ccc(CN2CCC3(CC2)CSC2=C(O3)c3ccccc3C(=O)C2=O)cc1
78.8 to 79.7 °C | CCC(C)Cc1ccc(C(=O)O)cc1Br (centres undefined)
32 °C | CC(=O)OCc1ccc(C=O)cc1
